Experimental data from US6812232B2, “Heterocycle substituted purine derivatives as potent antiproliferative agents” (AMR Technology, Inc., priority 2001, dated 2004).
Where “and” joins values, the source holds several entries; their conditions need not be identical. Identical values can stand only once.

How the values were obtained:
[1] = tested on: HeLa S-3 cells; experiment: Inhibition of cell growth (SRB), HeLa; type: cell-based, human; conditions: Table 2, 2 days of treatment, replicate experimental results
Procedure: D. Measuring the Inhibition of Cell Growth.
Growth inhibition (GI50) values were measured with HeLa S-3 cells selected for growth on plastic. […] One day later, a control plate was fixed by addition of TCA to 5%. After five rinses with tap water the plate was air dried and stored at 4° C. Test compounds were added to the remaining plates at 10-fold dilutions between 0.01 and 100 μM. Two days later all plates were fixed as described above. Cells were then stained by the addition of 100 […] of 0.4% sulforhodamine B (SRB) in 1% acetic acid for 30 min at 4° C. Wells were then quickly rinsed 5× with acetic acid (1%) and allowed to air dry. The SRB was then solubilized by the addition of 100 μl per well of unbuffered 10 mM Tris base. Dye was quantified by measuring absorbance at 490 nm on a Molecular Devices kinetic microplate reader. Growth at each inhibitor concentration relative to the untreated control was calculated according to the following equation: percent growth=100×(T−To)/(C−To), where T was the average optical density (OD) of the test wells after 2 days of treatment, To was the average OD of the wells in the control plate on day 0 and C was the average OD of untreated wells. Plots of percent growth versus inhibitor concentration were used to determine the GI50.

[2] = target: T1, CyclinB/cdk1 (Homo sapiens, UniProt P06493); experiment: CyclinB/cdk1 protein kinase assay (histone H1 phosphorylation); type: biochemical; conditions: Table 2; complexes isolated from HeLa cells, histone H1, 15 μM ATP; replicate experimental results; read-out: IC50 CyclinB/cdkl
T1 construct: Monoclonal antibody against cyclinB (GNS1) is added to the supernatant; endogenous in cells
T1 sequence (P06493 whole entry): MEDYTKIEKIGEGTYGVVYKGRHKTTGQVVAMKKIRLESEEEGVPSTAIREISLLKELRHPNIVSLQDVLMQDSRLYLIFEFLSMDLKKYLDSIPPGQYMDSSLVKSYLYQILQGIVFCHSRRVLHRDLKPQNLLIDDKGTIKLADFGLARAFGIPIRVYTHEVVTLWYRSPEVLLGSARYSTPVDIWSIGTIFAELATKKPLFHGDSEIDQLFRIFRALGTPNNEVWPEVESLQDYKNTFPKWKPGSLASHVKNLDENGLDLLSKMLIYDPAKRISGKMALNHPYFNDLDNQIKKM
T1 sequence (P14635 whole entry partner): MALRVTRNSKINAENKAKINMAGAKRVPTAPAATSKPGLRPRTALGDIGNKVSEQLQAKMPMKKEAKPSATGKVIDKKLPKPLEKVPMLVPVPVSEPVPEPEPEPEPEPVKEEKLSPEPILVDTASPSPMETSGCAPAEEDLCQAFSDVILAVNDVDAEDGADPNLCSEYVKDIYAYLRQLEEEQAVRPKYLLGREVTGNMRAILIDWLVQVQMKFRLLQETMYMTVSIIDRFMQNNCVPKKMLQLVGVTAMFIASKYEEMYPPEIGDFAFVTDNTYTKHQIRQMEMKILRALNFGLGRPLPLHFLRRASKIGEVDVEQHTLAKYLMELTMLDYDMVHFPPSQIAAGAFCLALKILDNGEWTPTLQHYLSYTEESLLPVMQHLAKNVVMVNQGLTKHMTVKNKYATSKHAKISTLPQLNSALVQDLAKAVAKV
Procedure: HeLa cells are blocked at the G1/S border by culturing in the presence of 2 mM thymidine for 20 h. The cells are then rinsed 3× in phosphate buffered saline and resuspended in regular medium. After 4 h of culture, the mitotic blocker, nocodazole is added to a final concentration of 75 ng/ml. […] The lysate is then clarified by centrifugation at 10,000×g for 10 min. The supernatant is collected and diluted 1:5 with Lysis Buffer. Monoclonal antibody against cyclinB (GNS1) is added to the supernatant to a final concentration of 5 μg/ml and shaken at 4° C. for 2 h. The immune complexes are then collected by the addition of 200 μl of protein agarose beads for 1 h. The beads are washed 4× in lysis buffer and 1× in kinase assay buffer.
Duplicate assays were performed at each concentration.

| Structure (SMILES) | GI50 [1] | melting point [°C] | also measured |
| --- | --- | --- | --- |
| COc1cccc(-c2ccc(CNc3nc(NC4CCC(NC(C)=O)CC4)nc4c3ncn4C(C)C)cc2)c1 (centres unmarked) [Compound 180] | 400 nM and 300 nM | – | – |
| COC(=O)NC1CCC(Nc2nc(NCc3ccc(-c4ccccc4)cc3)c3ncn(C(C)C)c3n2)CC1 (centres unmarked) [Compound 259] | 300 nM and 400 nM and 700 nM | – | – |
| CC(=O)N[C@H]1CC[C@H](Nc2nc(NCc3ccc(-c4ccco4)nc3)c3ncn(C(C)C)c3n2)CC1 [Compound 206] | – | 216 to 218 | – |
| CC(C)n1cnc2c(NCc3cccc(-c4ccsc4)c3)nc(N[C@H]3CC[C@H](N)CC3)nc21 [Compound 131] | 2000 nM | 211 to 216 | GI50 ([1]; Homo sapiens, HeLa S3, 48 h): 3000 nM |
| CC[C@H](CO)Nc1nc(NCc2ccc(-c3cccc([N+](=O)[O-])c3)cc2)c2ncn(C(C)C)c2n1 [Compound 48] | – | – | IC50 [2]: > 10000 nM |
| CC(C)n1cnc2c(NCc3ccc(-c4ccccc4)cc3)nc(NC3CCC(NC(=O)C4CC4)CC3)nc21 (centres unmarked) [Compound 261] | 300 nM | – | – |
| CC(=O)N[C@H]1CC[C@H](Nc2nc(NCc3ccc(-c4cccc(F)c4)nc3)c3ncn(C(C)C)c3n2)CC1 [Compound 188] | – | 199 to 230 | – |
| CC(C)n1cnc2c(NCc3ccc(-c4ccsc4)cc3)nc(N[C@H]3CC[C@H](NC(=O)OC(C)(C)C)CC3)nc21 [Compound 130] | > 10000 nM | – | – |
| CC(=O)N[C@H]1CC[C@H](Nc2nc(NCc3cccc(-c4ccsc4)c3)c3ncn(C(C)C)c3n2)CC1 [Compound 132] | 3000 nM | 209 to 211 | GI50 ([1]; Homo sapiens, HeLa S3, 48 h): 4000 nM |
| CC(C)n1cnc2c(NCc3ccc(-c4ccccc4)cc3)nc(N[C@H]3CC[C@H](NC(=O)OC(C)(C)C)CC3)nc21 [Compound 133] | > 10000 nM | – | – |
| CC(C)n1cnc2c(NCc3ccc(-c4ccccc4)cn3)nc(N[C@H]3CC[C@H](N)CC3)nc21 [Compound 229] | – | – | GI50 ([1]; Homo sapiens, HeLa S3, 48 h): 400 nM |
| CC(=O)NCCNc1nc(NCc2ccc(-c3ccccc3)cc2)c2ncn(C(C)C)c2n1 [Compound 208] | 4000 nM and 3000 nM | – | – |
| CC(=O)NC1CCC(Nc2nc(NCc3ccc(-c4cccc(C)c4)cc3)c3ncn(C(C)C)c3n2)CC1 (centres unmarked) [Compound 178] | 400 nM and 200 nM | – | – |
